According to PubChem BioAssay AID1259407 (Chemical Carcinogenesis Research Information System (CCRIS), 2018):
Active and inactive are the calls of the source. How the calls were made is not given here.

System: CCRIS mutagenicity, Ames/micronucleus/aberration tests
Experiment: CCRIS mutagenicity studies
[1] = Test System: AMES SALMONELLA TYPHIMURIUM, Strain/Indicator: TA98, Metabolic Activation: HAMSTER, LIVER, S-9, AROCLOR 1254 (10%), Method: PREINCUBATION
[2] = Test System: AMES SALMONELLA TYPHIMURIUM, Strain/Indicator: TA98, Metabolic Activation: NONE, Method: PREINCUBATION
[3] = Test System: AMES SALMONELLA TYPHIMURIUM, Strain/Indicator: TA98, Metabolic Activation: NONE, Method: STANDARD PLATE
[4] = Test System: AMES SALMONELLA TYPHIMURIUM, Strain/Indicator: TA98, Metabolic Activation: RAT, LIVER, S-9, AROCLOR 1254 (10%), Method: PREINCUBATION
[5] = Test System: AMES SALMONELLA TYPHIMURIUM, Strain/Indicator: TA100, Metabolic Activation: HAMSTER, LIVER, S-9, AROCLOR 1254 (10%), Method: PREINCUBATION
[6] = Test System: AMES SALMONELLA TYPHIMURIUM, Strain/Indicator: TA100, Metabolic Activation: NONE, Method: PREINCUBATION
[7] = Test System: AMES SALMONELLA TYPHIMURIUM, Strain/Indicator: TA100, Metabolic Activation: NONE, Method: STANDARD PLATE
[8] = Test System: AMES SALMONELLA TYPHIMURIUM, Strain/Indicator: TA100, Metabolic Activation: RAT, LIVER, S-9, AROCLOR 1254 (10%), Method: PREINCUBATION
[9] = Test System: AMES SALMONELLA TYPHIMURIUM, Strain/Indicator: TA1535, Metabolic Activation: HAMSTER, LIVER, S-9, AROCLOR 1254 (10%), Method: PREINCUBATION
[10] = Test System: AMES SALMONELLA TYPHIMURIUM, Strain/Indicator: TA1535, Metabolic Activation: NONE, Method: PREINCUBATION
[11] = Test System: AMES SALMONELLA TYPHIMURIUM, Strain/Indicator: TA1535, Metabolic Activation: RAT, LIVER, S-9, AROCLOR 1254 (10%), Method: PREINCUBATION
[12] = Test System: AMES SALMONELLA TYPHIMURIUM, Strain/Indicator: TA1537, Metabolic Activation: HAMSTER, LIVER, S-9, AROCLOR 1254 (10%), Method: PREINCUBATION
[13] = Test System: AMES SALMONELLA TYPHIMURIUM, Strain/Indicator: TA1537, Metabolic Activation: NONE, Method: PREINCUBATION
[14] = Test System: AMES SALMONELLA TYPHIMURIUM, Strain/Indicator: TA1537, Metabolic Activation: RAT, LIVER, S-9, AROCLOR 1254 (10%), Method: PREINCUBATION

Compound	mutagenic call [1]	mutagenic call [2]	mutagenic call [3]	mutagenic call [4]	mutagenic call [5]	mutagenic call [6]	mutagenic call [7]	mutagenic call [8]	mutagenic call [9]	mutagenic call [10]	mutagenic call [11]	mutagenic call [12]	mutagenic call [13]	mutagenic call [14]	also measured
Oc1c2ccccc2c2ccc3cccc4ccc1c2c43	–	–	–	–	–	–	–	–	–	–	–	–	–	–	mutagenic call (Test System: CHINESE HAMSTER V-79, Strain/Indicator: V-79/8-AZAGUANINE, Metabolic Activation: NONE, Method: STANDARD PLATE): active; positive
CCOC(=O)C1OC1c1ccccc1 (centres undefined)	inactive; negative	inactive; negative	inactive; negative	inactive; negative	inactive; negative	inactive; negative	inactive; negative	inactive; negative	inactive; negative	inactive; negative	inactive; negative	inactive; negative	inactive; negative	inactive; negative	mutagenic call (Test System: AMES SALMONELLA TYPHIMURIUM, Strain/Indicator: TA98, Metabolic Activation: RAT, LIVER, S-9, AROCLOR 1254, Method: STANDARD PLATE): inactive; negative; mutagenic call (Test System: AMES SALMONELLA TYPHIMURIUM, Strain/Indicator: TA100, Metabolic Activation: RAT, LIVER, S-9, AROCLOR 1254, Method: STANDARD PLATE): active; positive; mutagenic call (Test System: AMES SALMONELLA TYPHIMURIUM, Strain/Indicator: TA1535, Metabolic Activation: NONE, Method: STANDARD PLATE): inactive; negative; mutagenic call (Test System: AMES SALMONELLA TYPHIMURIUM, Strain/Indicator: TA1535, Metabolic Activation: RAT, LIVER, S-9, AROCLOR 1254, Method: STANDARD PLATE): inactive; negative; mutagenic call (Test System: AMES SALMONELLA TYPHIMURIUM, Strain/Indicator: TA1537, Metabolic Activation: NONE, Method: STANDARD PLATE): inactive; negative; mutagenic call (Test System: AMES SALMONELLA TYPHIMURIUM, Strain/Indicator: TA1537, Metabolic Activation: RAT, LIVER, S-9, AROCLOR 1254, Method: STANDARD PLATE): inactive; negative; mutagenic call (Test System: AMES SALMONELLA TYPHIMURIUM, Strain/Indicator: TA1538, Metabolic Activation: NONE, Method: STANDARD PLATE): inactive; negative; mutagenic call (Test System: AMES SALMONELLA TYPHIMURIUM, Strain/Indicator: TA1538, Metabolic Activation: RAT, LIVER, S-9, AROCLOR 1254, Method: STANDARD PLATE): inactive; negative; mutagenic call (Test System: CHINESE HAMSTER OVARY, Strain/Indicator: CHO-K1-BH4/6-THIOGUANINE, Metabolic Activation: NONE): active; positive; mutagenic call (Test System: CHINESE HAMSTER OVARY, Strain/Indicator: CHO-K1-BH4/6-THIOGUANINE, Metabolic Activation: RAT, LIVER, S-9, AROCLOR 1254): active; positive
CCCCC(CC)COC(=O)c1cccc(C(=O)OCC(CC)CCCC)c1 (centres undefined)	–	inactive; negative	–	–	–	inactive; negative	–	–	–	inactive; negative	–	–	–	–	mutagenic call (Test System: AMES SALMONELLA TYPHIMURIUM, Strain/Indicator: TA97, Metabolic Activation: HAMSTER, LIVER, S-9, AROCLOR 1254 (10 OR 30%), Method: PREINCUBATION): inactive; negative; mutagenic call (Test System: AMES SALMONELLA TYPHIMURIUM, Strain/Indicator: TA97, Metabolic Activation: NONE, Method: PREINCUBATION): inactive; negative; mutagenic call (Test System: AMES SALMONELLA TYPHIMURIUM, Strain/Indicator: TA97, Metabolic Activation: RAT, LIVER, S-9, AROCLOR 1254 (10 OR 30%), Method: PREINCUBATION): inactive; negative; mutagenic call (Test System: AMES SALMONELLA TYPHIMURIUM, Strain/Indicator: TA98, Metabolic Activation: HAMSTER, LIVER, S-9, AROCLOR 1254 (10 OR 30%), Method: PREINCUBATION): inactive; negative; mutagenic call (Test System: AMES SALMONELLA TYPHIMURIUM, Strain/Indicator: TA98, Metabolic Activation: RAT, LIVER, S-9, AROCLOR 1254 (10 OR 30%), Method: PREINCUBATION): inactive; negative; mutagenic call (Test System: AMES SALMONELLA TYPHIMURIUM, Strain/Indicator: TA100, Metabolic Activation: HAMSTER, LIVER, S-9, AROCLOR 1254 (10 OR 30%), Method: PREINCUBATION): inactive; negative; mutagenic call (Test System: AMES SALMONELLA TYPHIMURIUM, Strain/Indicator: TA100, Metabolic Activation: RAT, LIVER, S-9, AROCLOR 1254 (10 OR 30%), Method: PREINCUBATION): inactive; negative; mutagenic call (Test System: AMES SALMONELLA TYPHIMURIUM, Strain/Indicator: TA1535, Metabolic Activation: HAMSTER, LIVER, S-9, AROCLOR 1254 (10 OR 30%), Method: PREINCUBATION): inactive; negative; mutagenic call (Test System: AMES SALMONELLA TYPHIMURIUM, Strain/Indicator: TA1535, Metabolic Activation: RAT, LIVER, S-9, AROCLOR 1254 (10 OR 30%), Method: PREINCUBATION): inactive; negative
COc1cccc(C=O)c1O	–	–	inactive; negative	–	–	–	inactive; negative	–	–	–	–	–	–	–	mutagenic call (Test System: E. COLI, Strain/Indicator: CM561 LEXA, Metabolic Activation: NONE, Method: STANDARD PLATE): inactive; negative; mutagenic call (Test System: E. COLI, Strain/Indicator: CM611 UVRA/LEXA, Metabolic Activation: NONE, Method: STANDARD PLATE): inactive; negative; mutagenic call (Test System: E. COLI, Strain/Indicator: WP2 UVRA, Metabolic Activation: NONE, Method: STANDARD PLATE): inactive; negative
O=c1[nH]c(=O)n(Cl)c(=O)n1Cl	inactive; negative	inactive; negative	–	inactive; negative	inactive; negative	inactive; negative	–	inactive; negative	inactive; negative	inactive; negative	inactive; negative	inactive; negative	inactive; negative	inactive; negative	–
